This note sets out measurements from publication PMC10227015, “From a drug repositioning to a structure-based drug design approach to tackle acute lymphoblastic leukemia” (Nature Communications, 2023).

Series [1] concerns the target T1, dCK-C3S-S74E (Homo sapiens, UniProt P27707, form not given/S74E). The series can be described thus: Enzymatic assay (PK/LDH coupled), dC phosphorylation by dCK in the presence of UTP. The format is biochemical. The conditions noted are these: presence of UTP. The procedure: (§1) For enzymatic assays, cells were re-suspended in 20 mM TRIS, pH 8 500 mM NaCl, 0.1% BRIJ-35 and 5% glycerol buffer and one EDTA free anti-protease tablet was added (Roche). After sonication and centrifugation (30,000 × g), the supernatant was loaded on a 5 ml HisTrap FF column (GE healthcare) pre-equilibrated with 20 mM TRIS, pH 8, 500 mM NaCl, 0.01% BRIJ-35 and 5% glycerol buffer. The protein was then eluted by the same buffer containing 250 mM imidazole after a wash containing 25 mM imidazole. The eluted fraction was applied on a HiPrep 26/10 desalting column (GE healthcare) pre-equilibrated with 20 mM TRIS, pH 8, 500 mM NaCl, 5% glycerol and 0.01% BRIJ-35 buffer. Finally, protein in a 20% glycerol buffer was flash frozen in liquid nitrogen and stored at −80 °C.
Kinetic analyses were performed using a spectrophotometric continuous enzymatic-coupled assay using pyruvate kinase (PK) and lactate dehydrogenase (LDH). […] UTP is the physiological dCK-phosphate donor[46] and it was used to determine activation versus inhibition behavior. ATP was used to calculate IC50 values, as it allows the analysis of a dose response curve. The PK/LDH coupled assay is based on the conversion of phosphoenolpyruvate (PEP) and UDP/ADP to pyruvate and UTP/ATP by PK and the subsequent conversion of pyruvate to lactate by LDH. The latter step requires NADH, which is oxidized to NAD^+. NADH is fluorescent (excitation at 337 nm and emission at 460 nm), but not NAD^+. Thus, the measurement of fluorescent decrease at 460 nm is a measure of kinase activity. dCK experiments were performed in a buffer containing 50 mM HEPES, pH 7.5, 5 mM MgCl2, 1 mM DTT, and 100 mM KCl. Buffer was supplemented with PK (0.01 U/µl), LDH (0.02 U/µl), PEP (1 mM), NADH (300 µM) and compounds at varying concentrations. For UTP assays, protein concentration was 2 μM, substrate 200 µM (dC), and UTP 1 mM. For ATP assays, protein concentration was 100 nM (and 50 nM when indicated), substrate 100 µM (dC), and ATP 1 mM. All measurements were performed on a microplate reader Pherastar FS (BMG Labtech). All assays were performed in triplicate and each experiment was performed at least twice. The data are presented as mean ± SD. The results were plotted as kinetics and the velocity was determined for each condition as the slope of the linear range of the curve. For each compound concentration, the velocity of the reaction (according to V = d[P]/dt) was normalized with respect to the drug free control and velocity ratios were compared. IC50 values corresponding to enzymatic inhibition in ATP were calculated by nonlinear regression curves using GraphPad Prism software 9.4.0.

Series [2] can be described thus: Plasma pharmacokinetics after IP administration. The format is in vivo. The settings on record: male, Swiss, mouse, mice; for half-life: read-out: T ½ (converted). The procedure: (§2) To evaluate the in vivo toxicity selected compounds were injected by intraperitoneal (IP) route to 7 weeks-old male Swiss mice (n = 2) at 10, 20, 40, 50, or 80 mg/kg by unique injection. […] Compounds were administered in their hydrochloride salt forms. Mice were then observed closely for the next one hour, then every hour for 8 h. Observations were continued for 72 h for signs of pain or toxicity such as change in the behavior and in the activity in the cage (decreased locomotion) or change in the appearance (curved back, eyes half-closed, bristle hair, hips hollowed out). In vivo toxicity of compound OR0642 at 40 and 80 mg/kg was also assessed in the NOD-SCID-IL2Rγc null (NSG) mice model for 2 weeks in the presence and absence of dT to confirm the safety of the compound. […]. Blood samples were collected and spun at 10,000 × g prior to collecting the plasma supernatants. All plasma samples were frozen at −80 °C before sample processing. 13 μl of each plasma sample was mixed with 33 μl of acetonitrile to precipitate proteins and extract the compound. Samples were vortexed for 5 min and then placed in an ultrasonic bath for 1 min. The precipitated proteins were sedimented by centrifugation (15,000 × g, 5 min, 16 °C). Supernatants were transferred to a microplate to be analyzed by LC–MS/MS. All samples were analyzed with a UHPLC coupled to a Shimadzu LC-MS 8030 triple quadrupole. The solutions of a standard range, prepared with plasma from untreated mice, were analyzed in the same series of injections.

In series [3] the target is T1, dCK-C3S-S74E. The series can be described thus: Enzymatic assay (PK/LDH coupled), dC phosphorylation by dCK in the presence of ATP. The series is classed as biochemical. The conditions noted are these: for IC50: read-out: ENZYMATIC ASSAY IC50, presence of ATP, [dCK] = 50 nM (footnote A). The procedure: as §1
Kinetic analyses were performed using a spectrophotometric continuous enzymatic-coupled assay using pyruvate kinase (PK) and lactate dehydrogenase (LDH). Analysis of the effect of compounds on dCK-C3S-S74E activity was performed using dC as substrate and UTP/ATP as phosphate donors. UTP is the physiological dCK-phosphate donor[46] and it was used to determine activation versus inhibition behavior. ATP was used to calculate IC50 values, as it allows the analysis of a dose response curve. The PK/LDH coupled assay is based on the conversion of phosphoenolpyruvate (PEP) and UDP/ADP to pyruvate and UTP/ATP by PK and the subsequent conversion of pyruvate to lactate by LDH. The latter step requires NADH, which is oxidized to NAD^+. NADH is fluorescent (excitation at 337 nm and emission at 460 nm), but not NAD^+. Thus, the measurement of fluorescent decrease at 460 nm is a measure of kinase activity. dCK experiments were performed in a buffer containing 50 mM HEPES, pH 7.5, 5 mM MgCl2, 1 mM DTT, and 100 mM KCl. Buffer was supplemented with PK (0.01 U/µl), LDH (0.02 U/µl), PEP (1 mM), NADH (300 µM) and compounds at varying concentrations. For UTP assays, protein concentration was 2 μM, substrate 200 µM (dC), and UTP 1 mM. For ATP assays, protein concentration was 100 nM (and 50 nM when indicated), substrate 100 µM (dC), and ATP 1 mM. All measurements were performed on a microplate reader Pherastar FS (BMG Labtech). All assays were performed in triplicate and each experiment was performed at least twice. The data are presented as mean ± SD. The results were plotted as kinetics and the velocity was determined for each condition as the slope of the linear range of the curve. For each compound concentration, the velocity of the reaction (according to V = d[P]/dt) was normalized with respect to the drug free control and velocity ratios were compared. IC50 values corresponding to enzymatic inhibition in ATP were calculated by nonlinear regression curves using GraphPad Prism software 9.4.0.

Series [4] in a line: Acute in vivo toxicity, unique IP injection. The settings on record: male, mouse, in vivo; Swiss mice, IP, unique injection; read-out: Maximum tolerated dose. The procedure: as §2
Series [5] deals with T1, dCK-C3S-S74E. Briefly: Thermal shift assay (TSA). The settings on record: for ΔTm (º) (TSA): Figure 2a, mean; for Thermal Shift Assay Mean (ΔTm (º)): Figure 2b.
Text: (§3) BL21 pRIL Escherichia coli cells were transformed with dCK-plasmids (dCK-C4S-S74E (for crystallization assays) and dCK-C3S-S74E (for TSA, enzymatic and ITC assays)). […] Protein dCK-C3S-S74E used for other assays contained only three mutated cysteines. The S74E mutation mimics the phosphorylated state of this serine, which favors the open conformation of the enzyme, making it competent for nucleoside binding[45] to evaluate the binding affinity with compounds.
(§4) For binding assays (TSA, ITC and crystallography) cells were re-suspended in 50 mM TRIS, pH 8, 500 mM NaCl, 30 mM imidazole and 10% glycerol buffer and one EDTA free anti-protease tablet was added (Roche). After sonication and centrifugation (30,000 × g), the supernatant was loaded on a 5 ml HisTrap FF column (GE healthcare) pre-equilibrated with resuspension buffer. Protein was then eluted by resuspension buffer containing 500 mM imidazole. Protein eluted fractions were mixed and concentrated. Protein was further purified by size exclusion chromatography (superdex 200 16/600, GE healthcare) in 20 mM HEPES, pH 7.5, and 200 mM NaCl before concentration to 30 mg/ml and storage at −80 °C.
(§5) Thermal shift assay (TSA) experiments were performed in 384-well PCR white plates in the assay buffer containing 20 mM HEPES, pH 7.5 and 200 mM NaCl. […] Plates were centrifuged at 200 × g for 2 min at 4 °C. […] Raw fluorescence data were treated, and the melting temperatures (Tm) were calculated using CFX Manager 3.1 software (Bio-Rad). ΔTm represents the difference in Tm between the protein in the presence of compound and the protein alone (both at 2% DMSO). Each experiment was performed at least twice (with technical triplicates) and data are presented as the mean ± SD.
Series [6] has as its target T1, dCK-C3S-S74E.
Text: as §3, §4, §5
Series [7] deals with CCRF-CEM cell line. The series can be described thus: dCK cellular assay: CCRF-CEM proliferation in the presence of dT and dC. The format is cell-based, human. The settings on record: Homo sapiens; Figure 2a, CCRF-CEM cell line, mean; read-out: IC50 (nM) (Cell Prolif). An outline of the steps: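 Two conditions in T-ALL CCRF-CEM cells: compound only, and compound with thymidine blocking de novo synthesis and deoxycytidine rescuing via dCK. Metabolic dye fluorescence (560/590 nm) gives % proliferation vs DMSO; IC50s, mean ± SD of at least three triplicate runs.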

Series [8] has as its system Swiss male mice. Briefly: Acute in vivo toxicity, unique IP injection. The settings on record: mice, 80 mg/kg/day. Here is the method: as §2

Like-named read-outs stand apart in the source and are kept apart here.

T1 sequence (P27707 whole entry S74E, form open): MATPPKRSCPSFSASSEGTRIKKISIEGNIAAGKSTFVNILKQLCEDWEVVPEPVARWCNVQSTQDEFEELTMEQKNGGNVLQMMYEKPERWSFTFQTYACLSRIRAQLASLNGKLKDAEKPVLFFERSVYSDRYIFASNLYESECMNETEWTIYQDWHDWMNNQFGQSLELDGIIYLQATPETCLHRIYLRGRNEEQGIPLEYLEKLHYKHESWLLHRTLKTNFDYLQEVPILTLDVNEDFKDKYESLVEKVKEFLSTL

For orientation: Cmax means the maximum level reached in the sampled fluid or tissue. Broadly, the Tmax is the time from dosing to the highest level. The term IC50 denotes the concentration at which inhibition is half-maximal. For `CCCN(c1nc(-c2nc(N)cc(N)n2)cs1)c1cc(-c2ccc(S(=O)(=O)N3CCN(C)CC3)cc2)ccc1C` [OR0624], the “ENZYMATIC ASSAY (Activation/Inhibition)” value in series [1] is recorded as “I”. The same compound had a Cmax in series [2] (dose 20 mg/Kg) of 3.1 ± 0.6 µM. Besides, the Tmax in series [2] (dose 20 mg/Kg) turned out to be 1 h. Also, in series [2] (dose 20 mg/Kg), the half-life was 2.22 ± 0.183 h. In addition, the “Enzymatic activity (ATP) Mean (% activity)” value turned out to be 91.0% in series [3] (0.02 µM); 91.7% in series [3] (0.04 µM); 65.2% in series [3] (0.08 µM); 32.0% in series [3] (0.16 µM); 9.2% in series [3] (0.31 µM); 3.9% in series [3] (0.63 µM). Further, the “Enzymatic activity (ATP) Mean (% activity)” value amounted to 2.6% in series [3] (1.25 µM), 1.2% in series [3] (2.5 µM) and 0.363% in series [3] (5 µM). For the same compound, the IC50 in series [3] came to 198 ± 131 nM. The MTD at 72 h in series [4] came out at 20 mg/kg. In addition, the “ΔTm (º) (TSA)” value in series [5] was 19.49 º. The “Thermal Shift Assay Mean (ΔTm (º))” value in series [5] is 19.5 º. Moreover, in series [5] (mean ± SD), the “THERMAL SHIFT ASSAY +Tm (°)” value was found to be 19.5 ± 0.8 °.

Consider `CCCN(c1nc(-c2nc(N)cc(N)n2)cs1)c1cc(-c2ccc(OCC(=O)N3CCN(C)CC3)nc2)ccc1C` [OR0630], for which the “ΔTm (º) (TSA)” value in series [6] is on record as 17.35 º. Also, in series [7], the IC50 is 245 nM.

As to `CCCN(c1nc(-c2nc(N)cc(N)n2)cs1)c1cc(-c2ccc(S(=O)(=O)N3CCN(C)CC3)nc2)ccc1C` [OR0634], the “ENZYMATIC ASSAY (Activation/Inhibition)” value in series [1] is listed as “I”. The compound also showed a Cmax in series [2] (dose 40 mg/Kg) of 5.5 ± 1.3 µM. Besides, in series [2] (dose 40 mg/Kg), the Tmax is 1 h. Also, in series [2] (dose 40 mg/Kg), the half-life is 2.15 ± 0.283 h. Also, the “Enzymatic activity (ATP) Mean (% activity)” value in series [3] (0.02 µM) stood at 89.7%; in series [3] (0.04 µM), 80.2%; in series [3] (0.08 µM) it was 45.4%; in series [3] (0.16 µM), 12.5%; in series [3] (0.31 µM) it was 4.0%; in series [3] (0.63 µM) it was 2.2%. Also, the “Enzymatic activity (ATP) Mean (% activity)” value in series [3] (1.25 µM) is given as 1.9%; in series [3] (2.5 µM), 1.6%; in series [3] (5 µM), 1.6%. In addition, the IC50 in series [3] came to 100 ± 82 nM. Further, the in vivo tolerance entry in series [8] is recorded as “well tolerated”. Moreover, the MTD at 72 h in series [4] was greater than 80 mg/kg. Further, the “ΔTm (º) (TSA)” value in series [5] is recorded as 17.45 º. The “Thermal Shift Assay Mean (ΔTm (º))” value in series [5] is 17.5 º.
